The subject of the experiment is ATF4 luciferase reporter in HEK293T cells. As to the kind of experiment: ATF4-Luc assay (ATF4 luciferase reporter, tunicamycin-treated HEK293T cells). As to conditions: Homo sapiens, HEK-293T; HEK293T cells carrying the ATF4 luciferase reporter, 1 μg/mL tunicamycin, 7 hours. It is filed as cell-based, human. (Reporter assays use an easily measured gene product as a stand-in for the process of interest.)

A word on the EC50: it is the midpoint of the concentration-response curve. Take `Cc1cccc(COCC(=O)NC23CC(NC(=O)COc4ccc(Cl)c(Cl)c4)(C2)C3)n1` [Compound 153, 2-(3,4-dichlorophenoxy)-N-(3-{2-[(6-methylpyridin-2-yl)methoxy]acetamido}bicyclo[1.1.1]pentan-1-yl)acetamide]: the half-maximal effective concentration (EC50) was in the range of 50 to 250 nM.

As to `O=C(COc1ccc(C(F)(F)F)cc1)NC12CCC(NC(=O)COc3ccc(C(F)(F)F)cc3)(CC1)[C@@H](O)C2` [Compound 536, N,N′-[(2S)-2-hydroxybicyclo[2.2.2]octane-1,4-diyl]bis{2-[4-(trifluoromethyl)phenoxy]acetamide}], the EC50 was below 10 nM.

As for `COCc1ccccc1OCC(=O)NC12CCC(NC(=O)COc3ccc(Cl)c(F)c3)(CC1)[C@@H](O)C2` [Compound 776, 2-(4-chloro-3-fluorophenoxy)-N-[(2S)-2-hydroxy-4-{2-[2-(methoxymethyl)phenoxy]acetamido}bicyclo[2.2.2]octan-1-yl]acetamide], the EC50 is above 2000 nM.

Take `O=C(COCc1ccc(-n2cccn2)nc1)NC12CC(NC(=O)COc3ccc(Cl)c(F)c3)(C1)C2` [Compound 280, 2-(4-chloro-3-fluorophenoxy)-N-[3-(2-{[6-(1H-pyrazol-1-yl)pyridin-3-yl]methoxy}acetamido)bicyclo[1.1.1]pentan-1-yl]acetamide]: the 50% effective concentration (EC50) was above 2000 nM.

Take `O=C(COc1ccc(Cl)c(F)c1)NC12CCC(NC(=O)COc3ccc(F)cc3)(CC1)[C@H](O)C2` (single isomer, unassigned) [Compound 353]: the EC50 is below 10 nM.

As for `Cc1ncnc(C)c1OCC(=O)NC12CCC(NC(=O)COc3ccc(Cl)c(F)c3)(CC1)C[C@@H]2O` [Compound 493, 2-(4-chloro-3-fluorophenoxy)-N-[(3S)-4-{2-[(4,6-dimethylpyrimidin-5-yl)oxy]acetamido}-3-hydroxybicyclo[2.2.2]octan-1-yl]acetamide], the EC50 is above 2000 nM.

Turning to `O=C(COc1ccc(Cl)c(F)c1)NC12CCC(NC(=O)COc3ccc(C(F)(F)F)nc3)(CC1)C(F)C2` (single isomer, unassigned) [Compound 372], the EC50 was in the range of 50 to 250 nM.

As to `CC1(O)CC2(NC(=O)COc3ccc(Cl)c(F)c3)CCC1(NC(=O)COc1ccc(Cl)c(F)c1)CC2` (stereo not shown) [Compound 339, N,N′-(2-hydroxy-2-methylbicyclo[2.2.2]octane-1,4-diyl)bis[2-(4-chloro-3-fluorophenoxy)acetamide]], the EC50 was below 10 nM.

Take `Cc1ccnc(OCC(=O)NC23CCC(NC(=O)COc4ccc(Cl)c(F)c4)(CC2)C[C@@H]3O)n1` [Compound 753, 2-(4-chloro-3-fluorophenoxy)-N-[(3S)-3-hydroxy-4-{2-[(4-methylpyrimidin-2-yl)oxy]acetamido}bicyclo[2.2.2]octan-1-yl]acetamide]: the EC50 is 250 to 500 nM.

Consider `O=C(COc1ccc(C(F)(F)F)nc1)NC12CCC(NC(=O)COc3ccc(Cl)c(F)c3)(C1)C2` [Compound 188, 2-(4-chloro-3-fluorophenoxy)-N-[4-(2-{[6-(trifluoromethyl)pyridin-3-yl]oxy}acetamido)bicyclo[2.1.1]hexan-1-yl]acetamide], for which the EC50 is 50 to 250 nM.

Take `CCCS(=O)(=O)c1ccc(OCC(=O)NC23CCC(NC(=O)COc4ccc(Cl)c(F)c4)(CC2)[C@@H](O)C3)cc1` [Compound 474, 2-(4-chloro-3-fluorophenoxy)-N-[(2S)-2-hydroxy-4-{2-[4-(propane-1-sulfonyl)phenoxy]acetamido}bicyclo[2.2.2]octan-1-yl]acetamide]: the EC50 was above 2000 nM.

Take `O=C(COc1ccc(C(F)(F)F)nc1)NC12CCC(NC(=O)COc3ccc(Cl)c(F)c3)(CC1)C(O)C2` (stereo not shown) [Compound 313, 2-(4-chloro-3-fluorophenoxy)-N-[2-hydroxy-4-(2-{[6-(trifluoromethyl)pyridin-3-yl]oxy}acetamido)bicyclo[2.2.2]octan-1-yl]acetamide]: the EC50 is below 10 nM.

As to `O=C(COc1ccc(Cl)c(F)c1)NC12CC(NC(=O)COc3ccn4nccc4n3)(C1)C2` [Compound 182, 2-(4-chloro-3-fluorophenoxy)-N-(3-{2-[(pyrazolo[1,5-a]pyrimidin-5-yl)oxy]acetamido}bicyclo[1.1.1]pentan-1-yl)acetamide], the EC50 was above 2000 nM.

Consider `CC(O)c1ccc(OCC(=O)NC23CC(NC(=O)COc4ccc(Cl)c(F)c4)(C2)C3)cn1` (stereo not shown) [Compound 263, 2-(4-chloro-3-fluorophenoxy)-N-[3-(2-{[6-(1-hydroxyethyl)pyridin-3-yl]oxy}acetamido)bicyclo[1.1.1]pentan-1-yl]acetamide], for which the EC50 is 500 to 2000 nM.

In the case of `O=C(COc1ccc(Cl)c(F)c1)NC12CC(NC(=O)COc3cnc(C(F)(F)F)c(Cl)c3)(C1)C2` [Compound 222, 2-(4-chloro-3-fluorophenoxy)-N-[3-(2-{[5-chloro-6-(trifluoromethyl)pyridin-3-yl]oxy}acetamido)bicyclo[1.1.1]pentan-1-yl]acetamide], the EC50 is below 10 nM.

For `Cn1nc(C(F)(F)F)cc1OCC(=O)NC12CC(NC(=O)COc3ccc(Cl)c(F)c3)(C1)C2` [Compound 369, 2-(4-chloro-3-fluorophenoxy)-N-[3-(2-{[1-methyl-3-(trifluoromethyl)-1H-pyrazol-5-yl]oxy}acetamido)bicyclo[1.1.1]pentan-1-yl]acetamide], the concentration for a half-maximal effect (EC50) is above 2000 nM.

Regarding `O=C(COc1cc(F)c2cn[nH]c2c1)NC12CCC(NC(=O)COc3ccc(OC(F)(F)F)c(F)c3)(CC1)[C@@H](O)C2` [Compound 724], the half-maximal effective concentration (EC50) was below 10 nM.

For the compound `O=C(COc1ccc(Cl)c(F)c1)NC12CCC(NC(=O)COc3ccc(C4CC4)nc3)(CC1)C(O)C2` (stereo not shown) [Compound 311, 2-(4-chloro-3-fluorophenoxy)-N-(4-{2-[(6-cyclopropylpyridin-3-yl)oxy]acetamido}-3-hydroxybicyclo[2.2.2]octan-1-yl)acetamide], the 50% effective concentration (EC50) is below 10 nM.

In the case of `O=C(COc1ccc(Cl)c(F)c1)NC12CCC(NC(=O)COc3cccc(Cl)c3)(CC1)[C@@H](O)C2` [Compound 660, 2-(4-chloro-3-fluorophenoxy)-N-{(3S)-4-[2-(3-chlorophenoxy)acetamido]-3-hydroxybicyclo[2.2.2]octan-1-yl}acetamide], the 50% effective concentration (EC50) is below 10 nM.

Take `Cc1cc(OCC(=O)NC23CCC(NC(=O)COc4ccc(Cl)c(F)c4)(CC2)[C@@H](O)C3)ccc1F` [Compound 814, 2-(4-chloro-3-fluorophenoxy)-N-{(2S)-4-[2-(4-fluoro-3-methylphenoxy)acetamido]-2-hydroxybicyclo[2.2.2]octan-1-yl}acetamide]: the EC50 was below 10 nM.

`O=C(O)CN(CCOc1ccc(Cl)c(F)c1)C12CC(NC(=O)COc3ccc(Cl)c(F)c3)(C1)C2` [Compound 686, ({3-[2-(4-chloro-3-fluorophenoxy)acetamido]bicyclo[1.1.1]pentan-1-yl}[2-(4-chloro-3-fluorophenoxy)ethyl]amino)acetic Acid]: the EC50 was 500 to 2000 nM.

Turning to `O=C(COc1ccc(Cl)c(F)c1)NC12CCC(NC(=O)COc3cccnn3)(CC1)[C@@H](O)C2` [Compound 806, 2-(4-chloro-3-fluorophenoxy)-N-[(3S)-3-hydroxy-4-{2-[(pyridazin-3-yl)oxy]acetamido}bicyclo[2.2.2]octan-1-yl]acetamide], the EC50 is 500 to 2000 nM.

Turning to `CCc1ccc(OCC(=O)NC23CCC(NC(=O)COc4ccc(Cl)c(F)c4)(CC2)[C@@H](O)C3)cc1` [Compound 782, 2-(4-chloro-3-fluorophenoxy)-N-{(2S)-4-[2-(4-ethylphenoxy)acetamido]-2-hydroxybicyclo[2.2.2]octan-1-yl}acetamide], the 50% effective concentration (EC50) was below 10 nM.

In the case of `O=C(COc1ccc(Cl)c(C(=O)O)c1)NC12CCC(NC(=O)COc3ccc(Cl)c(C(=O)O)c3)(CC1)[C@@H](O)C2` [Compound 593, 3,3′-{[(2S)-2-hydroxybicyclo[2.2.2]octane-1,4-diyl]bis[azanediyl(2-oxoethane-2,1-diyl)oxy]}bis(6-chlorobenzoic acid)], the EC50 is above 2000 nM.

Consider `O=C(COc1ccc2cn[nH]c2c1)NC12CC(NC(=O)COc3ccc4cn[nH]c4c3)(C1)C2` [Compound 109, N,N′-(bicyclo[1.1.1]pentane-1,3-diyl)bis{2-[(1H-indazol-6-yl)oxy]acetamide}], for which the EC50 lay in the range of 500 to 2000 nM.

With `O=C(COc1nccs1)NC12CCC(NC(=O)COc3ccc(Cl)c(F)c3)(CC1)[C@@H](O)C2` [Compound 577, 2-(4-chloro-3-fluorophenoxy)-N-[(2S)-2-hydroxy-4-{2-[(1,3-thiazol-2-yl)oxy]acetamido}bicyclo[2.2.2]octan-1-yl]acetamide], the EC50 was above 2000 nM.

Regarding `O=C(COc1ccc2c(c1)OC(F)(F)O2)NC12CC(NC(=O)COc3ccc4c(c3)OC(F)(F)O4)(C1)C2` [Compound 274, N,N′-(bicyclo[1.1.1]pentane-1,3-diyl)bis{2-[(2,2-difluoro-2H-1,3-benzodioxol-5-yl)oxy]acetamide}], the EC50 is below 10 nM.

Consider `Cc1ccc(OCC(=O)NC23CC(NC(=O)COc4ccc(Cl)c(Cl)c4)(C2)C3)cn1` [Compound 295, 2-(3,4-dichlorophenoxy)-N-(3-{2-[(6-methylpyridin-3-yl)oxy]acetamido}bicyclo[1.1.1]pentan-1-yl)acetamide], for which the EC50 fell in the range of 50 to 250 nM.

For the compound `O=C(Cn1cc(F)cnc1=O)NC12CCC(NC(=O)COc3ccc(Cl)c(F)c3)(CC1)[C@@H](O)C2` [Compound 646, 2-(4-chloro-3-fluorophenoxy)-N-{(2S)-4-[2-(5-fluoro-2-oxopyrimidin-1(2H)-yl)acetamido]-2-hydroxybicyclo[2.2.2]octan-1-yl}acetamide], the EC50 lay within 500 to 2000 nM.

For the compound `O=C(COCCc1cccc(F)c1)NC12CC(NC(=O)COc3ccc(Cl)c(Cl)c3)(C1)C2` [Compound 150, 2-(3,4-dichlorophenoxy)-N-(3-{2-[2-(3-fluorophenyl)ethoxy]acetamido}-bicyclo[1.1.1]pentan-1-yl)acetamide], the EC50 lay in the range of 10 to 50 nM.

Take `O=C(Cc1ccc(Cl)cn1)NC12CCC(NC(=O)COc3ccc(Cl)c(F)c3)(CC1)[C@@H](O)C2` [Compound 606, 2-(4-chloro-3-fluorophenoxy)-N-{(2S)-4-[2-(5-chloropyridin-2-yl)acetamido]-2-hydroxybicyclo[2.2.2]octan-1-yl}acetamide]: the EC50 lay within 50 to 250 nM.

(Values after patent US20240166652A1, “MODULATORS OF THE INTEGRATED STRESS PATHWAY” (Calico Life Sciences LLC, priority 2017, published 2024).)
